The values that follow are results of earlier work, collected in patent US5183802A, “Pharmaceutical compositions for intranasal administration of calcitonin” (ISF Societa per Azioni, priority 1987, dated 1993).

For the series the following is noted: nasal absorption of insulin; compared with sodium caprate.

For the molecule `CC1(C)[C@@H](O)CC[C@]2(C)[C@H]3C(=O)C=C4[C@@H]5C[C@@](C)(C(=O)[O-])CC[C@]5(C)CC[C@@]4(C)[C@]3(C)CC[C@@H]12.[Na+]` [sodium glycyrrhetinate], the “strength as absorption-enhancing agent for insulin” value was “weaker than sodium caprate”.
